Laboratory results from US8338430B2, “N-substituted piperazines” (Dow AgroSciences, LLC., priority 2005, dated 2012).
Read-outs that look alike come from different tables or passages of the source.

How the values were obtained:
Assay type in all cases: in vivo
[1] = test system: mosquito (Aedes aegypti) larvae; assay: Mosquito larvae mortality (AEDSAE); conditions: 72 h, read-out: AEDSAE: % mortality against mosquito larvae
Experimental: (§1) The compounds identified in TABLE 2 were prepared using the procedures illustrated in the previous examples and these compounds were tested against beet armyworm, mosquito, fruit fly, and cotton aphid using protocols described after.
(§2) Compounds were evaluated on mosquito (Aedes aegypti) larvae, beet armyworm (Spodoptera exigua) larvae, fruit fly (Drosophila melanogaster) adults and cotton aphid (Aphis gossypi). Newly hatched mosquito larvae (about 50 larvae/well) in 96-well microtiter plates in 230 ul of water containing powdered liver/yeast extract (1 gr/100 ml) were treated with 20 ppm solution of the test compound. Following treatment the plates were covered with a lid and mortality was determined three days after treatment. Beet armyworm eggs (about 5 per well) were placed on artificial diet (in a 96-well microtiter plate) treated with a 4000 ppm solution of a test compound in combination with piperonyl butoxide (in approximate ratio of 1:4). After infestation, the plates were covered with a lid and mortality was determined seven days following treatment. Five-day old fruit fly adults (about 5/well) were placed in deep-well microtiter plates containing 250 ul/well of a 2% agar-10% sucrose mixture that had been treated with a 4000 ppm solution of a test compound. Following infestation, the plates were covered with a lid and mortality was determined three days after treatment. Treatments for the mosquito and armyworm were replicated six times each, that of the fruit fly three times each.

[2] = test system: fruit fly (Drosophila melanogaster) adults; assay: Adult fruit fly mortality on artificial diet (DROSME); conditions: 72 h, read-out: DROSME: % mortality against adult fruit fly on artificial diet
Experimental: as §1, §2

[3] = test system: beet armyworm (Spodoptera exigua) larvae; assay: Beet armyworm mortality on artificial diet (LAPHEG); conditions: 168 h, read-out: LAPHEG: % mortality against beet armyworm on artificial diet
Experimental: as §1, §2

[4] = test system: cotton aphid (Aphis gossypi); assay: Cotton aphid foliar spray test on squash (CA 200); conditions: 72 h, squash cotyledons, 3 days, Corrected % Control (Abbott), read-out: CA 200: % control against cotton aphid in foliar spray tests
Experimental: The compounds identified in TABLE 2 were prepared using the procedures illustrated in the previous examples and these compounds were tested against beet armyworm, mosquito, fruit fly, and cotton aphid using protocols described after. […]
Squash with fully expanded cotyledon leaves were trimmed to one cotyledon per plant and infested with cotton aphid (wingless adult and nymph) 1 day prior to chemical application.
Each plant is examined before chemical application to ensure proper infestation (ca. 30-70 aphids per plant). Compounds (3 mg) were dissolved in 3 mL of acetone:methanol (50:50) solvent, forming stock solutions of 1000 ppm. The stock solutions were then diluted with 0.025% Tween 20 (in H2O) to make […]. A hand-held Devilbiss sprayer was used to apply the spray solutions until runoff to both sides of the squash cotyledon leaves. Four plants (4 replications) were used for each concentration of each compound. Reference plants (solvent check) were sprayed with 0.025% Tween 20 only. Treated plants were held in a holding room for 3 days at approximately 23° C. and 40% RH before the number of live aphids on each plant was recorded. Insecticidal activity was measured by Corrected % Control using Abbott's correction formula and presented in TABLE 2: Corrected % Control=100*(X−Y)/X • where X=No. of live aphids on solvent check plants • Y=No. of live aphids on treated plants

[5] = 20 μg/ml, mortality three days after treatment
[6] = 4000 μg/ml, mortality three days after treatment
[7] = 4000 μg/ml, with piperonyl butoxide (approx. 1:4), mortality seven days after treatment

Structure (SMILES)	mortality at 20 µg/mL [1, 5] [%]	mortality at 4000 µg/mL [2, 6] [%]	mortality at 4000 µg/mL [3, 7] [%]	pest or weed control at 200 ppm [4] [%]	mortality at 20 µg/mL [1] [%]	mortality at 4000 µg/mL [2] [%]	mortality at 4000 µg/mL [3] [%]
N#Cc1cccc(CN2CCN(CCc3ccccc3)CC2)c1 [Compound 17, 3-{[4-(2-phenylethyl)piperazin-1-yl]methyl}benzonitrile]	1 to 25	26 to 49	1 to 25	1 to 25	–	–	–
O=C(c1ccco1)N1CCN(Cc2ccccc2)CC1 [Compound 34]	1 to 25	1 to 25	1 to 25	–	–	–	–
O=C(Cc1ccc(Cl)cc1)N1CCN(Cc2ccccc2)CC1 [Compound 38]	–	–	–	50 to 100	1 to 25	1 to 25	1 to 25
O=C(c1ccc(Cl)cc1)N1CCN(Cc2ccccc2)CC1 [Compound 44]	1 to 25	1 to 25	1 to 25	1 to 25	–	–	–
O=C(c1coc2ccccc12)N1CCN(Cc2ccccc2)CC1 [Compound 50]	1 to 25	1 to 25	1 to 25	50 to 100	–	–	–
FC(F)(F)c1ccccc1CCN1CCN(Cc2cc3c(cc2Cl)OCO3)CC1 [Compound 86]	26 to 49	1 to 25	1 to 25	50 to 100	–	–	–
FC(F)(F)c1ccc(CN2CCN(CCc3ccccc3C(F)(F)F)CC2)o1 [Compound 87]	1 to 25	1 to 25	1 to 25	26 to 49	–	–	–
COC(=O)c1cccc(CN2CCN(CCc3ccccc3)CC2)c1 [Compound 90]	1 to 25	26 to 49	1 to 25	50 to 100	–	–	–
FC(F)(F)Oc1cccc(CN2CCN(CCc3ccccc3)CC2)c1 [Compound 91]	1 to 25	26 to 49	1 to 25	1 to 25	–	–	–
COc1ccc(CN2CCN(CCc3ccccc3C(F)(F)F)CC2)cc1Cl [Compound 95]	1 to 25	26 to 49	1 to 25	50 to 100	–	–	–
CC(C)(C)OC(=O)N1CCN(CCc2ccccc2C(F)(F)F)CC1 [Compound 96]	1 to 25	1 to 25	26 to 49	50 to 100	–	–	–
COc1cc(CN2CCN(CCc3ccccc3C(F)(F)F)CC2)c([N+](=O)[O-])cc1OC [Compound 99]	1 to 25	1 to 25	1 to 25	50 to 100	–	–	–
FC(F)(F)c1ccccc1CCN1CCN(CC2COc3ccccc3O2)CC1 (stereo not drawn) [Compound 100]	1 to 25	26 to 49	1 to 25	50 to 100	–	–	–
FC(F)(F)c1ccccc1CCN1CCN(Cc2ccccc2Cl)CC1 [Compound 101]	1 to 25	1 to 25	1 to 25	50 to 100	–	–	–
Clc1cc2c(cc1CN1CCN(CCC3CCCCC3)CC1)OCO2 [Compound 102]	1 to 25	1 to 25	1 to 25	50 to 100	–	–	–
Clc1cc2c(cc1CN1CCN(CCOc3ccccc3)CC1)OCO2 [Compound 103]	1 to 25	1 to 25	1 to 25	50 to 100	–	–	–
